Results published in publication PMC12501029, “Discovery of a CNS active GSK3 degrader using orthogonally reactive linker screening” (Nature Communications, 2025).
Like-named read-outs stand apart in the source and are kept apart here.

Columns and labels:
[1] = Discrete i.v./p.o. KH1 (24) PK study and brain penetration; format: in vivo, female Balb/c mice
Description: Fifteen female mice of the Balb/c strain were obtained from Charles River Laboratories, UK. Animals were maintained under a 12-h light/12-h dark cycle, in Thoren mouse caging containing EC0 aspen bedding (DBM, UK), with 'Sizzlenest' and 'Rodent Rolls' nesting material (DBM). Enrichment materials included aspen chew sticks, cardboard houses, tunnels, swings, and sunflower seeds. All animals had ad libitum access to food (5LF2 Extruded Diet, IPS Ltd, UK) and tap water throughout. Temperature and relative humidity were maintained between 19 °C–24 °C and 45%–65%, respectively. All animals received a minimum of 10 days of acclimatisation prior to the start of the study.
(§1) The intravenous formulations for KH1 (24) were prepared by dissolving the compound in DMSO. This was then diluted with PEG400, followed by dropwise addition of sterile water to form a complete solution. The resulting formulations consisted of 5% DMSO, 40% PEG400, and 55% water, and contained KH1 (24) at a concentration of 0.1 mg/mL (for the PK study), or 1.0 mg/mL (for the PK/PD study), respectively.
The oral formulation for KH1 (24) was produced by vigorously mixing the compound with a sterile solution containing 0.5% hydroxypropylmethylcellulose in water, until a fine homogenous suspension was formed. The resulting formulation contained KH1 (24) at a concentration of 0.6 mg/mL. Dose formulations were prepared on the day of dosing, and animals were observed regularly after dose administration.
[…] Serial blood samples (10 µL per sample) were collected from the lateral tail vein of three intravenously-dosed mice and three orally-dosed mice at 5, 15 and 30 min, 1, 2, 4, 6, 8, and 24 h after dose administration. Blood samples were diluted into 90 µL of Milli‑Q ultrapure water. The remaining three intravenously-dosed animals were placed under terminal anaesthesia with isoflurane, 2 h after bolus administration. Blood was collected via cardiac puncture and the brains were removed. Two aliquots of 10 µL blood were each diluted into 90 µL of Milli-Q ultrapure water. All blood samples were stored at −20 °C prior to bioanalysis. The concentration of KH1 (24) in blood and brain was determined by UPLC-MS/MS.
(§2) Blood samples (10 µL) from study mice were diluted 1× with 90 µL of water immediately when the sample was taken. All calibration, quality control, blanks and double blank samples (all 100 µL volume) were mixed (vortexed) with 300 µL of LCMS grade acetonitrile to precipitate proteins.
(§3) For study samples, a volume (30 µL) was mixed (vortexed) with a volume (90 µL) of acetonitrile to precipitate proteins. After protein precipitation, all samples were centrifuged to pellet the proteins. Study samples in Micronics tubes were centrifuged using a Beckman Coutler Allegra C-12R Centrifuge for 10 min at 3750 rpm. All other samples in Eppendorf tubes were centrifuged using a Sigma SciQuip 1–14 centrifuge for 10 min (14,800 rpm/16,163 × g). Supernatant from study samples (80 µL) and calibration samples, QCs, blanks, and double blanks (200 µL) were then transferred to HPLC glass vials containing Milli-Q water (40 µL or 100 µL, respectively), ready for LCMS analysis.

[2] = KH1 (24) intravenous PK/PD study: blood and brain levels, observation; format: in vivo, female Balb/c mice
Procedure: as §1, with “formulation” for “formulations”, “was” for “were”, “of” for “of 0.1 mg/mL (for the PK study), or”, “mg/mL.” for “mg/mL (for the PK/PD study), respectively.”
For the PK/PD study for KH1 (24), three female Balb/c mice were given a bolus intravenous injection at a dose level of 5 mg/kg (5 mL/kg). Animals were observed regularly after dose administration. At 4 h after the administration of KH1 (24), all animals were placed under terminal anaesthesia with isoflurane. Blood was collected via cardiac puncture and the brain and liver were removed. Two aliquots of 10 µL blood were each diluted into 90 µL of Milli-Q ultrapure water. All diluted blood samples were stored at −20 °C prior to bioanalysis. A portion of the brain was stored at −20 °C awaiting bioanalysis, while the remaining brain and liver tissues were snap-frozen in liquid nitrogen and stored at −80 °C awaiting biological investigation. The concentration of KH1 (24) in whole blood and brain tissue was determined via UPLC-MS/MS.
as §2, §3

[3] = female, Balb/c, mouse, whole blood, Oral, 3 mg/kg

`Cn1nc(N2CCC(=O)NC2=O)c2ccc(CN3CCN(Cc4ccc(-c5cn(-c6ccc(-c7cn8nccc(C(=O)Nc9cnccc9N9CCOCC9)c8n7)cc6)nn5)nc4)CC3)cc21` [compound 24] showed a Half_Life ([1]; IV, 0.37 mg/kg) of 2.3 h, a Vss_obs ([1]; IV, 0.37 mg/kg) of 2.0 L/kg and a concentration at 2 h ([1]; female, Balb/c, mouse, brain (unbound), intravenous, 0.37 mg/kg, predicted from brain concentration and measured free fraction, read-out: free concentration in brain) of 0.02 nM. For the same compound, the Kp uu at 2 h ([1]; female, Balb/c, mouse, brain / plasma (unbound), iv, 0.37 mg/kg i.v., 2 h, read-out: estimated Kp,uu) was 0.05, the Kp at 2 h ([1]; female, Balb/c, mouse, brain / whole blood, intravenous, 0.37 mg/kg i.v., 2 hours, read-out: Brain:Blood Ratio) was 0.18 and the concentration at 2 h ([1]; female, Balb/c, mouse, brain, intravenous, 0.37 mg/kg i.v., 2 hours, read-out: Mean Brain Concentration) was 16 nM. It also gave a concentration at 2 h ([1]; female, Balb/c, mouse, plasma (unbound), intravenous, 2 h, 0.37 mg/kg, using predicted free fractions, read-out: unbound total plasma concentration) of 0.4 to 0.9 nM, a concentration at 2 h ([1]; female, Balb/c, mouse, whole blood, intravenous, 0.37 mg/kg i.v., 2 hours, read-out: Mean Blood Concentration) of 88 nM and an AUC(0-t) ([1]; female, Balb/c, mouse, whole blood, iv, 0.37 mg/kg) of 572 ng·h/mL. It also gave a clearance ([1]; female, Balb/c, mouse, whole blood, iv, 0.37 mg/kg, read-out: Cl_obs) of 10 mL/min/kg, an AUC(0-t) [1, 3] of 82.2 ng·h/mL and a Cmax [1, 3] of 19 ng/mL. For the same compound, the Tmax [1, 3] was 2 h, the bioavailability ([1]; female, Balb/c, mouse, whole blood, Oral, 3 mg/kg, read-out: F (oral bioavailability)) was 1.6% and the “total mean plasma concentration” value ([1]; for up to 4 h following i.v. dosing at 0.37 mg/kg) was “above 65 nM”. For the same compound, the “adverse signs in vivo” value ([2]; 5 mg/kg IV study and the lower IV/PO study) was “no adverse signs”, the Kp at 4 h ([2]; female, Balb/c, mouse, brain / whole blood, intravenous, 5 mg/kg i.v., 4 hours, read-out: Brain:Blood Ratio) was 0.1 and the concentration at 4 h ([2]; female, Balb/c, mouse, brain, intravenous, 5 mg/kg i.v., 4 hours, read-out: Mean Brain Concentration) was 68 nM. It also gave a concentration at 4 h ([2]; female, Balb/c, mouse, whole blood, intravenous, 5 mg/kg i.v., 4 hours, read-out: Mean Blood Concentration) of 696 nM.
